Measured values taken from PMC10684765, “Inhibition of rat locus coeruleus neurons by prostaglandin E2 EP3 receptors: pharmacological characterization ex vivo” (Frontiers in Pharmacology, 2023).
pEC50: −log10 of the molar value. Where two headings read alike, the source gives them in different places.

Legend:
EP3 receptor [1] = molecular target: T1, EP3 receptor (Rattus norvegicus, UniProt P34980); test: inhibition of LC neuron firing, single-unit extracellular recording; shifted by EP3 antagonist L-798, […]
T1 construct: gene Ptger3; native receptor in locus coeruleus neurons, brain slices
T1 sequence (P34980 1-365): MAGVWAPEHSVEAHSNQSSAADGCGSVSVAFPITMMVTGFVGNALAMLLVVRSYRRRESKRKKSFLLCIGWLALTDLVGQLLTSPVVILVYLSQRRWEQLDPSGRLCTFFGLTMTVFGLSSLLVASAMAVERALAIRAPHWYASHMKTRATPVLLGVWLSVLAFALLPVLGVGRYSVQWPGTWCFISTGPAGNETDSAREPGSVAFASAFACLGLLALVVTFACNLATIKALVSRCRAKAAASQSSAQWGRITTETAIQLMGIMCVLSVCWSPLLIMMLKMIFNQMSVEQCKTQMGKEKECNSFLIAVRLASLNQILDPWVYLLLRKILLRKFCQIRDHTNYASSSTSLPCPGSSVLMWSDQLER

EP3 receptor [2] = molecular target: T1, EP3 receptor; test: antagonism of sulprostone concentration-effect curves, single-unit recording in rat LC slices (Schild-derived fit)

Row | Structure (SMILES) | pEC50 (EP3 receptor [1]; read-out: (EC50)) | further results
1 | CCCCC(C)(O)C/C=C/[C@H]1[C@H](O)CC(=O)[C@@H]1CCCCCCC(=O)O (relative stereo) [misoprostol free acid] | 7.29 | 
2 | COc1ccc(Br)cc1S(=O)(=O)NC(=O)/C=C/c1ccccc1Cc1ccc2ccccc2c1 [L-798,106] |  | Kb (EP3 receptor [2]): 5.77 ± 0.10 pKB
3 | CS(=O)(=O)NC(=O)CCC/C=C\C[C@H]1C(=O)C[C@@H](O)[C@@H]1/C=C/[C@@H](O)COc1ccccc1 [sulprostone] | 7.83 | 
4 | CCCCC[C@H](O)/C=C/[C@H]1[C@H](O)CC(=O)[C@@H]1C/C=C\CCCC(=O)O [prostaglandin E2] |  | pEC50 (EP3 receptor [1]): 6.96
